Experimental data reported in ChEMBL document CHEMBL1201862, “PubChem BioAssay data set” (2004).
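Values below derive from 48-hour exposures of cells grown in 96-well plates, with endpoints linearly interpolated between the two concentrations bracketing the appropriate inhibition level. GI50 marks 50% less growth.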 Calls of active or inactive are those of the source. Cut-off read from the data, not from the text of the source: active = GI50 up to about 1.1 µM and inactive = higher.

Experiments:
Assay in all cases: inhibition of tumour cell growth, NCI panel, 48 h
OVCAR-4 = test system: OVCAR-4
HOP-92 = test system: HOP-92
SR = test system: SR
OVCAR-5 = test system: OVCAR-5
SW-620 = test system: SW-620
NCI-H522 = test system: NCI-H522
SNB-19 = test system: SNB-19
UACC-257 = test system: UACC-257
T47D = test system: T47D
A498 = test system: A498
COLO 205 = test system: COLO 205
HOP-62 = test system: HOP-62
OVCAR-3 = test system: OVCAR-3
OVCAR-8 = test system: OVCAR-8
CAKI-1 = test system: CAKI-1
U-251 = test system: U-251
SF-539 = test system: SF-539
MDA-MB-435 = test system: MDA-MB-435
UO-31 = test system: UO-31
HL-60 = test system: HL-60

SMILES	GI50 (OVCAR-4)	GI50 (HOP-92)	GI50 (SR)	GI50 (OVCAR-5)	GI50 (SW-620)	GI50 (NCI-H522)	GI50 (SNB-19)	GI50 (UACC-257)	GI50 (T47D)	GI50 (A498)	GI50 (COLO 205)	GI50 (HOP-62)	GI50 (OVCAR-3)	GI50 (OVCAR-8)	GI50 (CAKI-1)	GI50 (U-251)	GI50 (SF-539)	GI50 (MDA-MB-435)	GI50 (UO-31)	GI50 (HL-60)
CNC(=O)Nc1cc2c3c(c1)CCCN3CCC2	> 10 µM (inactive)	> 10 µM (inactive)	> 10 µM (inactive)	> 10 µM (inactive)	> 10 µM (inactive)	> 10 µM (inactive)	> 10 µM (inactive)	> 10 µM (inactive)	> 10 µM (inactive)	> 10 µM (inactive)	> 10 µM (inactive)	> 10 µM (inactive)	> 10 µM (inactive)	> 10 µM (inactive)	> 10 µM (inactive)	> 10 µM (inactive)	> 10 µM (inactive)	> 10 µM (inactive)	–	–
O=C(OCC1OC2OC(c3ccccc3)(n3ccc4c([N+](=O)[O-])ccnc43)OC2C1OC(=O)c1ccccc1)c1ccccc1 (configuration not stated)	> 100 µM (inactive)	> 100 µM (inactive)	> 100 µM (inactive)	> 100 µM (inactive)	> 100 µM (inactive)	–	> 100 µM (inactive)	> 100 µM (inactive)	35 µM (inactive)	> 100 µM (inactive)	–	> 100 µM (inactive)	> 100 µM (inactive)	> 100 µM (inactive)	> 100 µM (inactive)	> 100 µM (inactive)	–	> 100 µM (inactive)	> 100 µM (inactive)	> 100 µM (inactive)
Clc1cccc2[nH]ncc12	> 100 µM (inactive)	> 100 µM (inactive)	30.6 µM (inactive)	> 100 µM (inactive)	> 100 µM (inactive)	26.5 µM (inactive)	> 100 µM (inactive)	> 100 µM (inactive)	16.6 µM (inactive)	> 100 µM (inactive)	74.6 µM (inactive)	> 100 µM (inactive)	> 100 µM (inactive)	> 100 µM (inactive)	68.4 µM (inactive)	> 100 µM (inactive)	> 100 µM (inactive)	> 100 µM (inactive)	–	> 100 µM (inactive)
O=C1/C(=C/c2ccc(OC(=O)c3ccc(Cl)cc3)cc2)CCC/C1=C\c1ccc(OC(=O)c2ccc(Cl)cc2)cc1	> 100 µM (inactive)	> 100 µM (inactive)	> 100 µM (inactive)	> 100 µM (inactive)	> 100 µM (inactive)	> 100 µM (inactive)	> 100 µM (inactive)	> 100 µM (inactive)	> 100 µM (inactive)	–	> 100 µM (inactive)	19.4 µM (inactive)	> 100 µM (inactive)	> 100 µM (inactive)	> 100 µM (inactive)	64.3 µM (inactive)	30 µM (inactive)	> 100 µM (inactive)	> 100 µM (inactive)	> 100 µM (inactive)
C/C(=C\COP(=O)(O)OP(=O)(O)O)CC/C=C(\C)CNc1c(F)c(F)c(F)c(F)c1F	> 100 µM (inactive)	82.2 µM (inactive)	0.0695 µM (active)	> 100 µM (inactive)	> 84.7 µM (inactive)	> 100 µM (inactive)	> 100 µM (inactive)	> 70.3 µM (inactive)	> 100 µM (inactive)	–	> 100 µM (inactive)	> 100 µM (inactive)	> 100 µM (inactive)	> 64.3 µM (inactive)	> 100 µM (inactive)	> 100 µM (inactive)	97.1 µM (inactive)	> 100 µM (inactive)	> 100 µM (inactive)	> 100 µM (inactive)
C=CC(C)(C)c1c(OC)oc2ccc(OC)c(C)c2c1=O	–	–	84.1 µM (inactive)	> 100 µM (inactive)	> 100 µM (inactive)	98.2 µM (inactive)	> 100 µM (inactive)	> 100 µM (inactive)	56.4 µM (inactive)	> 100 µM (inactive)	> 100 µM (inactive)	> 100 µM (inactive)	> 100 µM (inactive)	> 100 µM (inactive)	> 100 µM (inactive)	> 100 µM (inactive)	> 100 µM (inactive)	> 100 µM (inactive)	> 100 µM (inactive)	70.6 µM (inactive)
CC(=O)OC1=CC2=CC[C@H]3[C@@H]4CCC(=O)[C@@]4(C)CC(=O)[C@]3(S)[C@@]2(C)CC1	57.8 µM (inactive)	24.8 µM (inactive)	23.6 µM (inactive)	> 100 µM (inactive)	31.6 µM (inactive)	20 µM (inactive)	79.8 µM (inactive)	27.3 µM (inactive)	34.8 µM (inactive)	41.1 µM (inactive)	32.4 µM (inactive)	38.9 µM (inactive)	22.7 µM (inactive)	31.3 µM (inactive)	35.2 µM (inactive)	29.6 µM (inactive)	20 µM (inactive)	30.7 µM (inactive)	51.1 µM (inactive)	–
O=C(c1ccccc1)C1C(c2ccccc2[N+](=O)[O-])N1C1CCCCC1 (configuration not stated)	9.33 µM (inactive)	3.5 µM (inactive)	0.634 µM (active)	17 µM (inactive)	–	2.11 µM (inactive)	16.3 µM (inactive)	3.21 µM (inactive)	2.51 µM (inactive)	16.7 µM (inactive)	7.26 µM (inactive)	15.1 µM (inactive)	2.5 µM (inactive)	1.86 µM (inactive)	3.44 µM (inactive)	6.01 µM (inactive)	2.1 µM (inactive)	2.6 µM (inactive)	6.61 µM (inactive)	–
